What was measured:
Rattus norvegicus [1] = assay: Hypoglycemic activity in STZ-nicotinamide Wistar rat model of diabetes at 50 mg/kg administered intragastrically as single dose measured after 7 hrs relative to control; format: functional; conditions: route intragastric
Rattus norvegicus [2] = assay: Hypoglycemic activity in STZ-nicotinamide Wistar rat model of diabetes at 50 mg/kg administered intragastrically as single dose; format: functional, organism-based; parameters: dose 50 mg/kg; conditions: TDE = time-dependent effect

SMILES | Activity (Rattus norvegicus [1]) [%] | Activity (Rattus norvegicus [2])
Cc1c(C(=O)NN2CCCCC2)nn(-c2ccc(F)c(Cl)c2)c1-c1ccc(Cl)cc1 | 33.6 | 
Cc1c(C(=O)NN2CCCCC2)nn(-c2ccc(C(F)(F)F)cc2)c1-c1ccc(Cl)cc1 | 27.3 | 
Cc1c(C(=O)NN2CCCCC2)nn(-c2ccc(F)c(Cl)c2)c1-c1ccc(F)cc1 | 58.7 | tde
Cc1c(C(=O)NN2CCCCC2)nn(-c2ccccc2)c1-c1ccccc1 | 37.2 | 
Cc1c(C(=O)NN2CCCCC2)nn(-c2ccc(Cl)cc2Cl)c1-c1ccc(C(F)(F)F)cc1 | 43.9 | 
Cc1c(C(=O)NN2CCCCC2)nn(-c2ccc(Cl)c(Cl)c2)c1-c1ccc(Cl)cc1 | 54.7 | tde
Cc1c(C(=O)NN2CCCCC2)nn(-c2ccc(Cl)cc2Cl)c1-c1ccc(Cl)cc1 [RIMONABANT] | 25.4 | 
Cc1c(C(=O)NN2CCCCC2)nn(-c2ccc(F)cc2F)c1-c1ccc(F)cc1 | 49.4 | tde
Cc1c(C(=O)NN2CCCCC2)nn(-c2ccnc3cc(Cl)ccc23)c1-c1ccc(F)cc1 | 22.4 | 
Cc1c(C(=O)NN2CCCCC2)nn(-c2ccc(F)cc2F)c1-c1ccc(C(F)(F)F)cc1 | 54.2 | 
Cc1c(C(=O)NN2CCCCC2)nn(-c2ccc(C(F)(F)F)cc2)c1-c1ccc(Br)cc1 | -2.4 | 
Cc1c(C(=O)NN2CCCCC2)nn(-c2ccnc3cc(Cl)ccc23)c1-c1ccc(Cl)cc1 | 34.2 | 
COc1ccc(Cl)cc1C(=O)NCCc1ccc(S(=O)(=O)NC(=O)NC2CCCCC2)cc1 [GLYBURIDE] | 38 | 
Cc1c(C(=O)NN2CCCCC2)nn(-c2ccc(Cl)cc2Cl)c1-c1ccccc1 | 1.08 | 

Reference: ChEMBL document CHEMBL3102729, “Synthesis, hypoglycemic activity and molecular modeling studies of pyrazole-3-carbohydrazides designed by a CoMFA model” (2013)
